In one experiment the target is T1, PR (Homo sapiens, UniProt P06401).
T1 sequence (P06401 165-933 limits assumed): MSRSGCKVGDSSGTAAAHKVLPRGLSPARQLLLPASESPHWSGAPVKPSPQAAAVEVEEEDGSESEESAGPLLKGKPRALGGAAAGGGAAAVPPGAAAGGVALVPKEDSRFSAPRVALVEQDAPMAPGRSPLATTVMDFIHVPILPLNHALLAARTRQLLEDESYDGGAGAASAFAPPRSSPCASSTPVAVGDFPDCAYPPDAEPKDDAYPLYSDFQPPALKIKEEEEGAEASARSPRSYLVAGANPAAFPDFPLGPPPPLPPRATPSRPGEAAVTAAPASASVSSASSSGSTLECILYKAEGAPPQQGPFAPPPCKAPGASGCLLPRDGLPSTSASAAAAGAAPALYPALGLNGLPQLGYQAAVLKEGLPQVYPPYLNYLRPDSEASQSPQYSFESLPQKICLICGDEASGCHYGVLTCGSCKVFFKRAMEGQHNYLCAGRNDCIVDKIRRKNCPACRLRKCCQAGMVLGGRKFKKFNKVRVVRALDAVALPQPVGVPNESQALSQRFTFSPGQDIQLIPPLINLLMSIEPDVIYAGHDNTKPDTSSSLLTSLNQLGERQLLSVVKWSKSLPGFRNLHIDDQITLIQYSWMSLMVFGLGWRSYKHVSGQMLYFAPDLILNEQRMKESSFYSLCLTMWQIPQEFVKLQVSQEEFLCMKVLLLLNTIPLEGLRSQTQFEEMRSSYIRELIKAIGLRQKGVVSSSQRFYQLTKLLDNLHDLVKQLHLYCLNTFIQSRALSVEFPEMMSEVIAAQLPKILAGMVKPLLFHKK
In words: PR reporter gene assay. Type of experiment: cell-based. The following applies: for inhibition of PR transactivation (in words): 10 μM compound. In general terms: In a reporter assay the amount or activity of a reporter protein is the signal.

The target in a further experiment is T2, ER (Homo sapiens, UniProt P03372).
T2 sequence (P03372 1-595): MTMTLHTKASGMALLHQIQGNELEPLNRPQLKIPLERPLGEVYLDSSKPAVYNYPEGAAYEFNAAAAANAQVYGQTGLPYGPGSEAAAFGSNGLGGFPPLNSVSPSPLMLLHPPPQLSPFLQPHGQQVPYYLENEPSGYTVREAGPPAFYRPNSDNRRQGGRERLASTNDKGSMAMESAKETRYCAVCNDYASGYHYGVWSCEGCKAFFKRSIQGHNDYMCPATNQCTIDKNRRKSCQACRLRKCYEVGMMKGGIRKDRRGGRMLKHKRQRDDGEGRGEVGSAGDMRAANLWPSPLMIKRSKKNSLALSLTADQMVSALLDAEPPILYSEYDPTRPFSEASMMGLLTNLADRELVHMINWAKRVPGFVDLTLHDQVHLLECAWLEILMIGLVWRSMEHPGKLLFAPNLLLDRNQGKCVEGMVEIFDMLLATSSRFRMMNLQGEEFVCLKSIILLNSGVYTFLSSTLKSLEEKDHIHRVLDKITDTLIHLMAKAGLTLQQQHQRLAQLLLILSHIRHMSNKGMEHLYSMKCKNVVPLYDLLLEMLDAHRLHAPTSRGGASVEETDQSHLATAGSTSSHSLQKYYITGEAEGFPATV
The experiment is described as follows: ER reporter gene assay. It is filed as cell-based. The following applies: for inhibition of ER transactivation (in words) / Reporter Assay (% Activity) ER: 10 μM compound; for Reporter Assay (% Activity) ER: 5 nM estradiol, 24 h, % of maximal luciferase activity (100%).

For the next experiment, the target named is T3, GR (Rattus norvegicus, UniProt P06536).
T3 sequence (P06536 1-795): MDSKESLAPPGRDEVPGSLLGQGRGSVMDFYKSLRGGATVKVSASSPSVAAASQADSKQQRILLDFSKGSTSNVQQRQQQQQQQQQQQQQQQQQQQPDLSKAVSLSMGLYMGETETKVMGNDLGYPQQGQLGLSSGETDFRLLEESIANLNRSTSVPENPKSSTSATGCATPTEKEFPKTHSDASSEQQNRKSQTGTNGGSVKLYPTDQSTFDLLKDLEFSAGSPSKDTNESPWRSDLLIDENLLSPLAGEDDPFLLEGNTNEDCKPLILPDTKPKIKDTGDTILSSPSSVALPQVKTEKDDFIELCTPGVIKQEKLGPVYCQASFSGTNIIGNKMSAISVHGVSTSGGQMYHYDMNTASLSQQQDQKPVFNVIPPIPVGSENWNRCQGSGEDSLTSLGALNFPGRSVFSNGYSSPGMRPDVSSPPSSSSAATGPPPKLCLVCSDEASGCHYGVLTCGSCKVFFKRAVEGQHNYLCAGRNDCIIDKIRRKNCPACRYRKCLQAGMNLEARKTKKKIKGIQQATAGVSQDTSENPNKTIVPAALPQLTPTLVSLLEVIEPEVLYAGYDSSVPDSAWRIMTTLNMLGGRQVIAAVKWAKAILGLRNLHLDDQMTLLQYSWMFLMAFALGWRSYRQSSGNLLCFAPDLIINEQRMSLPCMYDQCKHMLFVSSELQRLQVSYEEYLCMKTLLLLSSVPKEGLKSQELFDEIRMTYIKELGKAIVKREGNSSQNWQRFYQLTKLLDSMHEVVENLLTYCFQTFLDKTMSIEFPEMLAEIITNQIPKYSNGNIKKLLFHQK
The experiment is described as follows: GR reporter gene assay. It is filed as cell-based, human. The following applies: 10 μM compound.

In the next experiment the target is T4, AR (Homo sapiens, UniProt P10275).
T4 sequence (P10275 1-920): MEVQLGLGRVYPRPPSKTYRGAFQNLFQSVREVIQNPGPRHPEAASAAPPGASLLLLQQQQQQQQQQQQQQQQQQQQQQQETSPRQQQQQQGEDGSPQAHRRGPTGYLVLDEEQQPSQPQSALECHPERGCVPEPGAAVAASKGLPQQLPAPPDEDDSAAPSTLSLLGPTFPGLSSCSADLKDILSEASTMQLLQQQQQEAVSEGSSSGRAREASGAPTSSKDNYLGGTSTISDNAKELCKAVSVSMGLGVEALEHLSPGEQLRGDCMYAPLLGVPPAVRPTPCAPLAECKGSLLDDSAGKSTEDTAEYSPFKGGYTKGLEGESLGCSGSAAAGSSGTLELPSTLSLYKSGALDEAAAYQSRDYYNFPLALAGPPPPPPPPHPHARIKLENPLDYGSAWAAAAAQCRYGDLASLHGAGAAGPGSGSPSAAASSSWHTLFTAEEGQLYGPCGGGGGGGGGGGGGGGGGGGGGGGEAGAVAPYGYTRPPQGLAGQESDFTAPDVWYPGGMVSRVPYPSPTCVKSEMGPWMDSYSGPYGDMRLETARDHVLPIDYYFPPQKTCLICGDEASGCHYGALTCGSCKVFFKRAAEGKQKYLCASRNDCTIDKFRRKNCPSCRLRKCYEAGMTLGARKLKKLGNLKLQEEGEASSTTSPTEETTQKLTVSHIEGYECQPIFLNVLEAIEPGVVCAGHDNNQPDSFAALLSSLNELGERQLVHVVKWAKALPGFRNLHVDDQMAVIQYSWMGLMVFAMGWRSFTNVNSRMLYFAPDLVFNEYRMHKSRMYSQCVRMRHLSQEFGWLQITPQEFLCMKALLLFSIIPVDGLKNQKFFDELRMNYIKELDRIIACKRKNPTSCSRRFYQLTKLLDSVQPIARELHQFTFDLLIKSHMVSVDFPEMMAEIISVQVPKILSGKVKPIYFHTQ
In words: AR reporter gene assay. Type of experiment: cell-based. The following applies: 10 μM compound.

Another experiment concerns pS2 mRNA. In words: qRT-PCR of 17β-estradiol-induced pS2 mRNA. It is filed as cell-based. The following applies: 2 hours; compound 51 at 5 μM. (In qPCR the cycle at which signal appears reflects the starting amount.)

Regarding `Cn1c(=O)c2[nH]cnc2n(C)c1=O` [Compound 1, Theophylline, reference compound], the “inhibition of PR transactivation (in words)” value on PR is given as “did not inhibit”. Moreover, the activity at 10 µM on PR (T47D, read-out: Reporter Assay (% Activity) PR) stood at 105%; at ER (read-out: Reporter Assay (% Activity) ER), 93%. Also, the “inhibition of ER transactivation (in words)” value against ER is given as “did not inhibit”. Turning to `CCc1nc2c([nH]1)c(=O)n(C)c(=O)n2C` [Compound 2], the “Reporter Assay (% Activity) ER” value on ER was 106%. In the case of `CCCCc1nc2c([nH]1)c(=O)n(C)c(=O)n2C` [Compound 3], the “Reporter Assay (% Activity) ER” value at ER is listed as 88%. In the case of `Cn1c(=O)c2[nH]c(Cc3ccccc3)nc2n(C)c1=O` [Compound 4], on ER, the “Reporter Assay (% Activity) ER” value worked out at 94%. For `CCCSc1nc2c([nH]1)c(=O)n(C)c(=O)n2C` [Compound 7], on ER, the “Reporter Assay (% Activity) ER” value worked out at 111%.

On to `Cn1c(=O)c2[nH]c(SCc3ccccc3)nc2n(C)c1=O` [Compound 8], for which the “Reporter Assay (% Activity) ER” value at ER came to 104%. For the molecule `CSc1nc2c([nH]1)c(=O)n(C)c(=O)n2C` [Compound 10], on ER, the “Reporter Assay (% Activity) ER” value was 6%. In the case of `CSc1nc2c([nH]1)c(=S)n(C)c(=S)n2C` [Compound 13], on ER, the “Reporter Assay (% Activity) ER” value was found to be 101%. Turning to `CCCSc1nc2c([nH]1)c(=S)n(C)c(=S)n2C` [Compound 19], the “Reporter Assay (% Activity) ER” value at ER was found to be 79%.

Regarding `CCCCCCCCCCSc1nc2c([nH]1)c(=O)n(C)c(=O)n2C` [Compound 37], the “Reporter Assay (% Activity) ER” value on ER is 109%.

For the molecule `CCCC(C)Sc1nc2c([nH]1)c(=S)n(C)c(=O)n2C` (stereo not shown) [Compound 45], the “inhibition of PR transactivation (in words)” value against PR is listed as “moderately potent inhibitors”. Further, on ER, the “inhibition of ER transactivation (in words)” value is given as “no activity” and the “Reporter Assay (% Activity) ER” value is on record as 94%. The “inhibition of GR transactivation (in words)” value on GR is listed as “no activity”. For the same molecule, the “inhibition of AR transactivation (in words)” value against AR is listed as “no activity”. As to `C[C@]12CC[C@@H]3c4ccc(O)cc4C[C@@H](CCCCCCCCC[S+]([O-])CCCC(F)(F)C(F)(F)F)[C@H]3[C@@H]1CC[C@@H]2O` (stereo partly shown) [ICI 182,780, reference compound], the “effect on 17β-estradiol induction of pS2 mRNA” value in the experiment on pS2 mRNA is given as “inhibited induction of pS2 mRNA”.
